The target of one assay is NAMPT (Homo sapiens, UniProt P43490). Put plainly: TR-FRET Binding Assay of NAMPT with PRPP. The conditions noted are these: with 200 μM PRPP and 2.5 mM ATP; 2 nM NAMPT, 2 nM probe, 16 hours equilibration. The essentials:
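Human NAMPT (2 nM) with 2 nM probe and 1 nM Tb-anti-His antibody, plus 200 μM PRPP and 2.5 mM ATP, 2% DMSO. TR-FRET read after 16 h equilibration, permitting possible enzymatic modification of test compounds; data processing as for the substrate-free format.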
In general terms: Time-resolved FRET reads energy transfer from a long-lived donor to a nearby acceptor.

Assay [1] has as its target NAMPT (human, recombinant, C-terminally His-tagged) (Homo sapiens, UniProt P43490). The experiment in a line: Time-Resolved Fluorescence Resonance Energy Transfer (TR-FRET) Binding Assay of NAMPT. The conditions noted are these: without substrates; 6.8 nM NAMPT, 200 nM probe, 3 hours equilibration. The essentials:
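A TR-FRET probe-displacement assay used 6.8 nM His-tagged recombinant human NAMPT, 200 nM Oregon Green 488-labelled nicotinamide-competitive probe and 1 nM Tb-anti-His antibody. Buffer was HEPES pH 7.5 with NaCl, MgCl2, DTT and glycerol, plus 2% DMSO, equilibrated 3 h at room temperature. Em520/Em495 ratios, normalized to controls, gave IC50 by four-parameter logistic fit.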

The next assay concerns PC3 cells. The experiment in a line: NAMPT Cell Proliferation Assay. It is filed as cell-based. The conditions noted are these: Homo sapiens, PC-3, 120 h, 5 days incubation, cell viability by Cell Titer Glo. The essentials: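 Cell Titer Glo viability after 5-day exposure (37° C, 5% CO2); PC3, 500 cells/well, RPMI + 10% heat-inactivated FBS, overnight attachment before dosing. Dose range 10 μM to 1×10^−5 μM, 10-fold steps. IC50 = sigmoidal fit of % inhibition.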

Where only a bound is given, the exact number is not on record here.

Sequence of NAMPT (human, recombinant, C-terminally His-tagged) (P43490 whole entry): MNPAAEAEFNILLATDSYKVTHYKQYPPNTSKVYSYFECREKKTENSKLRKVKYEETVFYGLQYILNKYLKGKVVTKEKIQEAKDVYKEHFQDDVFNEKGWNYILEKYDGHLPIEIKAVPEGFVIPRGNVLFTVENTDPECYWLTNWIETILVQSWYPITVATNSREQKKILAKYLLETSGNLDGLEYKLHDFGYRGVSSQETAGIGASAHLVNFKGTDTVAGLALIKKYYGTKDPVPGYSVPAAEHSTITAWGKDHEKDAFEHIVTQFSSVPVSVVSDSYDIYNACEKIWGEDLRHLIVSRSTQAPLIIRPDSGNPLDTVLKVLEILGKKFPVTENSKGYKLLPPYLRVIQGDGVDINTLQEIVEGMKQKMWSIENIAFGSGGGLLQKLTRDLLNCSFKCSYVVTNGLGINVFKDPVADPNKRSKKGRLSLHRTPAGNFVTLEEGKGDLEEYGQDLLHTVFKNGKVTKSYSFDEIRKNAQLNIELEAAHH
Sequence of NAMPT (P43490 whole entry): as above

What is called IC50 is the concentration needed to halve the response being measured. For the molecule `O=C(NCc1ccn2ccnc2c1)c1ccc(C2CCN(C(=O)c3cccs3)C2)cc1` (stereo not drawn) [Example 488, N-(imidazo[1,2-a]pyridin-7-ylmethyl)-4-[1-(thiophen-2-ylcarbonyl)pyrrolidin-3-yl]benzamide], the IC50 at NAMPT was found to be 0.544 nM; in assay [1] it was 138 nM; with PC3 cells it was 98.3 nM.

For `CC(C)OCCNC(=O)N(C[C@@H]1CCCO1)c1ncc(C(=O)NCc2ccc3nccn3c2)s1` [Example 156, N-(imidazo[1,2-a]pyridin-6-ylmethyl)-2-({[2-(propan-2-yloxy)ethyl]carbamoyl}[(2S)-tetrahydrofuran-2-ylmethyl]amino)-1,3-thiazole-5-carboxamide], the IC50 at NAMPT was determined as 3.18 nM; in assay [1] it was 3270 nM; with PC3 cells it was 28 nM.

As to `CC(C)(C)OC(=O)N1CC=C(c2ccc(NC(=O)Nc3ccc4nccn4c3)cc2)CC1` [Example 25, tert-butyl 4-{4-[(imidazo[1,2-a]pyridin-6-ylcarbamoyl)amino]phenyl}-3,6-dihydropyridine-1(2H)-carboxylate], the 50% inhibitory concentration (IC50) at NAMPT was determined as 0.714 nM; in assay [1] it was 508 nM; with PC3 cells, 146 nM.

Take `Cc1cc(CC(=O)N(C[C@H]2CCCO2)c2ncc(C(=O)NCc3ccn4ccnc4c3)s2)no1` [Example 193, N-(imidazo[1,2-a]pyridin-7-ylmethyl)-2-{[(5-methyl-1,2-oxazol-3-yl)acetyl][(2R)-tetrahydrofuran-2-ylmethyl]amino}-1,3-thiazole-5-carboxamide]: the IC50 at NAMPT stood at 0.266 nM; in assay [1], 516 nM; in the assay with PC3 cells, 19.9 nM.

Take `CC(C)(C)OC(=O)N1CCC(Oc2ccc(C(=O)NCc3ccn4ccnc4c3)cc2)CC1` [Example 365, tert-butyl 4-{4-[(imidazo[1,2-a]pyridin-7-ylmethyl)carbamoyl]phenoxy}piperidine-1-carboxylate]: the concentration for half-maximal inhibition (IC50) at NAMPT was 0.171 nM; in assay [1], 1340 nM; in the assay on PC3 cells, 332 nM.

`O=C(NCc1ccc2nccn2c1)c1cnc(N(CC2CCCO2)C(=O)CCc2cc(Cl)no2)s1` (stereo not drawn) [Example 126, 2-{[3-(3-chloro-1,2-oxazol-5-yl)propanoyl](tetrahydrofuran-2-ylmethyl)amino}-N-(imidazo[1,2-a]pyridin-6-ylmethyl)-1,3-thiazole-5-carboxamide]: the IC50 on NAMPT turned out to be 0.963 nM; in assay [1], 102 nM; in the assay with PC3 cells, 3.96 nM.

Take `CC[C@H](C)C(=O)N1CCC(c2ccc(NC(=O)NCc3ccn4ccnc4c3)cc2)C1` (stereo partly drawn) [Example 381]: the half-maximal inhibitory concentration (IC50) came to 0.259 nM on NAMPT, 84.1 nM in assay [1] and 17.3 nM in the assay on PC3 cells.

On to `CC(C)(O)CC(=O)N1CC[C@H](Oc2ccc(C(=O)NCc3ccn4ccnc4c3)cc2)C1` [Example 354, 4-{[(3S)-1-(3-hydroxy-3-methylbutanoyl)pyrrolidin-3-yl]oxy}-N-(imidazo[1,2-a]pyridin-7-ylmethyl)benzamide], for which the IC50 on NAMPT is 0.526 nM; in assay [1] it was above 10000 nM; in the assay with PC3 cells, 7490 nM.

Turning to `CC(C)Cn1nccc1-c1ccc(C(=O)NCc2ccn3ccnc3c2)o1` [Example 818, N-(imidazo[1,2-a]pyridin-7-ylmethyl)-5-[1-(2-methylpropyl)-1H-pyrazol-5-yl]furan-2-carboxamide], the IC50 at NAMPT is 0.644 nM; in assay [1] it was 1520 nM; with PC3 cells it was 716 nM.

On to `O=C(NCc1ccn2ccnc2c1)c1ccc(C2CCN(C(=O)c3ccc(F)cc3F)C2)s1` (stereo not drawn) [Example 772, 5-[1-(2,4-difluorobenzoyl)pyrrolidin-3-yl]-N-(imidazo[1,2-a]pyridin-7-ylmethyl)thiophene-2-carboxamide], for which the 50% inhibitory concentration (IC50) was 0.828 nM on NAMPT, 61.5 nM in assay [1] and 2.4 nM in the assay on PC3 cells.

In the case of `O=C(NCc1ccn2ccnc2c1)Nc1ccc(C2CCN(C(=O)CN3CCOCC3)C2)cc1` (stereo not drawn) [Example 392, 1-(imidazo[1,2-a]pyridin-7-ylmethyl)-3-{4-[1-(morpholin-4-ylacetyl)pyrrolidin-3-yl]phenyl}urea], the IC50 on NAMPT came to 0.465 nM; in assay [1], 814 nM; with PC3 cells, 666 nM.

Consider `CC(C)OCC(=O)N1CC(c2ccc(NC(=O)NCc3ccn4ccnc4c3)cc2)C1` [Example 456, 1-(imidazo[1,2-a]pyridin-7-ylmethyl)-3-(4-{1-[(propan-2-yloxy)acetyl]azetidin-3-yl}phenyl)urea], for which the IC50 at NAMPT was determined as 0.169 nM; in assay [1] it was 389 nM; in the assay with PC3 cells, 49.6 nM.

In the case of `O=C(Nc1ccc(C(=O)NCC2CCCCO2)cc1)Nc1ccc2ncc(Cl)n2c1` (stereo not drawn) [Example 396, 4-{[(3-chloroimidazo[1,2-a]pyridin-6-yl)carbamoyl]amino}-N-(tetrahydro-2H-pyran-2-ylmethyl)benzamide], the IC50 at NAMPT was 0.36 nM; in assay [1] it was 22.6 nM; in the assay on PC3 cells, 32.4 nM.

For the molecule `CC(C)C(=O)N1CC[C@@H](Oc2ccc(C(=O)NCc3ccn4ccnc4c3)cc2)C1` [Example 492, N-(imidazo[1,2-a]pyridin-7-ylmethyl)-4-{[(3R)-1-(2-methylpropanoyl)pyrrolidin-3-yl]oxy}benzamide], the values for the IC50 (at NAMPT; in assay [1]; with PC3 cells) were 0.863 nM, above 10000 nM and 1270 nM, respectively.

For the molecule `O=C(NCc1ccn2ccnc2c1)c1ccc(-c2cnn(CCO)c2)s1` [Example 317, 5-[1-(2-hydroxyethyl)-1H-pyrazol-4-yl]-N-(imidazo[1,2-a]pyridin-7-ylmethyl)thiophene-2-carboxamide], the IC50 on NAMPT turned out to be 0.282 nM; in assay [1], 317 nM; in the assay on PC3 cells, 542 nM.

In the case of `O=C(NCc1ccn2ccnc2c1)Nc1ccc(O[C@@H]2CCN(C(=O)C3CCOCC3)C2)cc1` [Example 333, 1-(imidazo[1,2-a]pyridin-7-ylmethyl)-3-(4-{[(3R)-1-(tetrahydro-2H-pyran-4-ylcarbonyl)pyrrolidin-3-yl]oxy}phenyl)urea], the IC50 at NAMPT turned out to be 0.346 nM; in assay [1] it was 583 nM; with PC3 cells it was 116 nM.

In the case of `O=C(NCCCCC1CCN(C(=O)CCC(F)(F)F)CC1)Nc1ccc2nccn2c1` [Example 65, 1-imidazo[1,2-a]pyridin-6-yl-3-{4-[1-(4,4,4-trifluorobutanoyl)piperidin-4-yl]butyl}urea], the figures for the half-maximal inhibitory concentration (IC50) (on NAMPT; in assay [1]; in the assay with PC3 cells) were 0.685 nM, 773 nM and 65.6 nM, respectively.

For the molecule `O=C(NCc1ccn2ccnc2c1)Nc1ccc(C2CCN(C(=O)c3ccc(F)c(F)c3)CC2)cc1` [Example 723, 1-{4-[1-(3,4-difluorobenzoyl)piperidin-4-yl]phenyl}-3-(imidazo[1,2-a]pyridin-7-ylmethyl)urea], the values for the IC50 (on NAMPT; in assay [1]; with PC3 cells) were 0.932 nM, 154 nM and 71.6 nM, respectively.

On to `O=C(NCc1ccn2ccnc2c1)c1ccc(O[C@H]2CCN(C(=O)c3ccccc3)C2)cc1` [Example 353, 4-{[(3S)-1-benzoylpyrrolidin-3-yl]oxy}-N-(imidazo[1,2-a]pyridin-7-ylmethyl)benzamide], for which the IC50 on NAMPT stood at 0.47 nM; in assay [1], 3170 nM; with PC3 cells, 7510 nM.

In the case of `CCS(=O)(=O)N1CC(c2ccc(C(=O)NCc3ccn4ccnc4c3)cc2)C1` [Example 567, 4-[1-(ethylsulfonyl)azetidin-3-yl]-N-(imidazo[1,2-a]pyridin-7-ylmethyl)benzamide], the values for the IC50 (at NAMPT; in assay [1]; in the assay with PC3 cells) were 1.11 nM, 403 nM and 237 nM, respectively.

As for `CC(C)(C)OC(=O)N1CCC(c2ccc(C(=O)Nc3ccc4ncc(Cl)n4c3)cc2)CC1` [Example 491, tert-butyl 4-{4-[(3-chloroimidazo[1,2-a]pyridin-6-yl)carbamoyl]phenyl}piperidine-1-carboxylate], the results for the IC50 (at NAMPT; in assay [1]; in the assay with PC3 cells) were 1.9 nM, above 10000 nM and 7830 nM, respectively.

Turning to `O=C(NCc1ccn2ccnc2c1)c1cnc(N(C[C@H]2CCCO2)C(=O)Cc2cscn2)s1` [Example 196, N-(imidazo[1,2-a]pyridin-7-ylmethyl)-2-{[(2R)-tetrahydrofuran-2-ylmethyl](1,3-thiazol-4-ylacetyl)amino}-1,3-thiazole-5-carboxamide], the IC50 came out at 0.169 nM on NAMPT, 358 nM in assay [1] and 6.75 nM with PC3 cells.

Take `CC(C)(C)C(=O)N1CC(c2ccc(C(=O)NCc3ccn4ccnc4c3)cc2)C1` [Example 633, 4-[1-(2,2-dimethylpropanoyl)azetidin-3-yl]-N-(imidazo[1,2-a]pyridin-7-ylmethyl)benzamide]: the half-inhibitory concentration (IC50) on NAMPT turned out to be 0.707 nM; in assay [1], 335 nM; with PC3 cells, 12 nM.

As for `O=C(NCc1ccn2ccnc2c1)c1ccc(C2CCN(C(=O)c3cnccn3)C2)s1` (stereo not drawn) [Example 792, N-(imidazo[1,2-a]pyridin-7-ylmethyl)-5-[1-(pyrazin-2-ylcarbonyl)pyrrolidin-3-yl]thiophene-2-carboxamide], the IC50 on NAMPT was 0.5 nM; in assay [1] it was 116 nM; in the assay on PC3 cells it was 9.57 nM.

On to `CC(C)CC(=O)N1CCC(c2ccc(C(=O)NCc3ccn4ccnc4c3)cc2)C1` (stereo not drawn) [Example 601, N-(imidazo[1,2-a]pyridin-7-ylmethyl)-4-[1-(3-methylbutanoyl)pyrrolidin-3-yl]benzamide], for which the IC50 turned out to be 0.682 nM at NAMPT, 712 nM in assay [1] and 56.7 nM with PC3 cells.

Source of the values: patent US9187472B2 (AbbVie Inc., priority 2012, dated 2015).
